Literature values in patent US20140329770A1, “Compositions Comprising Phytoestrogens Receptor Beta Agonists and Dietary Fibers for Chemopreventive Treatment of Sporadic Adenomatous Polyposis” (CM&D PHARMA LIMITED, priority 2011, published 2014).

Tests used:
rectal ACF = details: 6-months intervention, subjects at increased risk for CRC

SMILES | Reduction in rectal ACF numbers compared with maltodextrins (rectal ACF) | Tumor growth of human SW480 CRC (human SW480 CRC; feeding, nu/nu mice) | Toxicity (human SW480 CRC; mouse, in vivo)
CC(C)c1c(C(=O)Nc2ccccc2)c(-c2ccccc2)c(-c2ccc(F)cc2)n1CC[C@@H](O)C[C@@H](O)CC(=O)O [atovarstastin] | did not demonstrate significant reductions | – | –
COc1cc(C2Oc3cc([C@H]4Oc5cc(O)cc(O)c5C(=O)[C@@H]4O)ccc3OC2CO)ccc1O (stereo partly shown) [silybinin] | – | suppressed | Without any apparent toxicity
CC1=C(CC(=O)O)c2cc(F)ccc2/C1=C\c1ccc([S+](C)[O-])cc1 (stereo not shown) [sulindac] | did not demonstrate significant reductions | – | –
